Where two headings read alike, the source gives them in different places.
What was measured:
[1] = target: Recombinant human Cbl-b (aa 36-427) (Homo sapiens, UniProt Q13191); test: Cbl-b Biochemical Assay (TR-FRET); conditions: read-out: TR-FRET hCbl-b IC50
[2] = test system: Jurkat (clone E6-1) cells with NFAT luciferase reporter; test: Jurkat reporter assay (NFAT Luciferase); format: cell-based; conditions: Jurkat NFAT luciferase reporter cells, anti-CD3 stimulation, 6 hr, read-out: Jurkat NFAT EC50
[3] = target: T1, Recombinant human c-Cbl (aa 47-435) (Homo sapiens, UniProt P22681); test: c-Cbl Biochemical Assay (TR-FRET); conditions: hc-Cbl Biochemical Assay (TR-FRET); read-out: TR-FRET hcCbl IC50
T1 sequence (P22681 47-435): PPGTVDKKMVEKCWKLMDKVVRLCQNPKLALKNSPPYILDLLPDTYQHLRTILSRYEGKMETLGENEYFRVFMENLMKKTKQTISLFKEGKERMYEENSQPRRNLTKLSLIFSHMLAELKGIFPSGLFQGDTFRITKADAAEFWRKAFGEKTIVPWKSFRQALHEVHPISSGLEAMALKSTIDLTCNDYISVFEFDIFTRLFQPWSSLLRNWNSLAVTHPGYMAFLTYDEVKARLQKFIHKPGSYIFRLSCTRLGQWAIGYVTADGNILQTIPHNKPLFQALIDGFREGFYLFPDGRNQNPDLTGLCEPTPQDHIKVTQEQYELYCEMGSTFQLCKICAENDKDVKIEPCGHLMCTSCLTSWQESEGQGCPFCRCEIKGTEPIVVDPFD

Sequence of Recombinant human Cbl-b (aa 36-427) (Q13191 36-427): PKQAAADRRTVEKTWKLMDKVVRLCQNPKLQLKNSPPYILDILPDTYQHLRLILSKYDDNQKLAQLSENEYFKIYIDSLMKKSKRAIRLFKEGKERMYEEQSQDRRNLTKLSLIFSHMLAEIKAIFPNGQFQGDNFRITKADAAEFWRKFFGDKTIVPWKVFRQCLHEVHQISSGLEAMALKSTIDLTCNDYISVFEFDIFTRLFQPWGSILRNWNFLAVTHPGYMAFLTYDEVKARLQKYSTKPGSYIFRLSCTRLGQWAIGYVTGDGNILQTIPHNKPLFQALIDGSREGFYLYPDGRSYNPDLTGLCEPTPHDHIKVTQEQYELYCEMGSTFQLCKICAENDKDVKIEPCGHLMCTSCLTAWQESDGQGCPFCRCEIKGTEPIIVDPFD

IC50 [1]	EC50 ([2]; Homo sapiens)	IC50 [3]	EC50 [2]	SMILES
< 0.2 µM	< 0.2 µM	< 0.2 µM		C[C@H]1CCC[C@@H](NCc2cc(C(F)(F)F)c3oc(-c4cccc(-c5ccc(F)cc5-c5nncn5C)c4)nc3c2)C1 (racemic) [FV-2, rac-(1R,3S)—N-((2-(4′-fluoro-2′-(4-methyl-4H-1,2,4-triazol-3-yl)-[1,1′-biphenyl]-3-yl)-7-(trifluoromethyl)benzo[d]oxazol-5-yl)methyl)-3-methylcyclohexan-1-amine]
< 0.2 µM	0.2 to 1 µM	< 0.2 µM		C[C@@H]1CCC[C@@H](NCc2cc(C(F)(F)F)c3oc(-c4cccc(-c5ccc(F)cc5-c5nncn5C)c4)nc3c2)C1 (racemic) [FV-3, rac-(1R,3R)—N-((2-(4′-fluoro-2′-(4-methyl-4H-1,2,4-triazol-3-yl)-[1,1′-biphenyl]-3-yl)-7-(trifluoromethyl)benzo[d]oxazol-5-yl)methyl)-3-methylcyclohexan-1-amine]
1 to 10 µM	1 to 10 µM	1 to 10 µM		Cn1cnnc1-c1cc(F)ccc1-c1cccc(-c2nc3cc(C(NCC4CCC4)C(F)(F)F)cc(C4CC4)c3o2)c1 (racemic) [IO-4, rac-N-(Cyclobutylmethyl)-1-(7-cyclopropyl-2-(4′-fluoro-2′-(4-methyl-4H-1,2,4-triazol-3-yl)-[1,1′-biphenyl]-3-yl)benzo[d]oxazol-5-yl)-2,2,2-trifluoroethan-1-amine]
< 0.2 µM	1 to 10 µM	0.2 to 1 µM		Cn1cnnc1-c1cc(F)ccc1-c1cccc(-c2nc3cc([C@@H](CO)N4CCC4)cc(C(F)(F)F)c3o2)c1 (single isomer, unassigned) [DO-7]
< 0.2 µM	< 0.2 µM	< 0.2 µM		Cn1cnnc1-c1cc(F)ccc1-c1cccc(-c2nc3cc(CNC[C@@H](O)C4CC4)cc(C(F)(F)F)c3o2)c1 (single isomer, unassigned) [DT-3]
< 0.2 µM	1 to 10 µM	0.2 to 1 µM		CO[C@H](CO)c1cc(C(F)(F)F)c2oc(-c3cccc(-c4ccc(F)cc4-c4nncn4C)c3)nc2c1 (single isomer, unassigned) [EG-2]
< 0.2 µM	1 to 10 µM	0.2 to 1 µM		CO[C@@H](CO)c1cc(C(F)(F)F)c2oc(-c3cccc(-c4ccc(F)cc4-c4nncn4C)c3)nc2c1 (single isomer, unassigned) [EG-3]
< 0.2 µM	< 0.2 µM	< 0.2 µM		CC(NCC1(O)CCC1)c1cc(F)c2oc(-c3cc(-c4ccc(F)cc4-c4nncn4C)cc(C4CC4)n3)nc2c1 (stereo in doubt) [AFR-1, 1-({[(1R)-1-(2-{6-Cyclopropyl-4-[4-fluoro-2-(4-methyl-1,2,4-triazol-3-yl)phenyl]pyridin-2-yl}-7-fluoro-1,3-benzoxazol-5-yl)ethyl]amino}methyl)cyclobutan-1-ol]
< 0.2 µM	0.2 to 1 µM	1 to 10 µM		CC(c1cc(C(F)(F)F)c2oc(-c3cccc(C4(Cc5nncn5C)COC4)c3)nc2c1)N1CCC2(CC2)C1 (stereo not drawn) [AAB-9, 5-(1-{5-Azaspiro[2.4]heptan-5-yl}ethyl)-2-(3-{3-[(4-methyl-1,2,4-triazol-3-yl)methyl]oxetan-3-yl}phenyl)-7-(trifluoromethyl)-1,3-benzoxazole]

The remaining lines, values behind:

SMILES	IC50 [1]	EC50 ([2]; Homo sapiens)	IC50 [3]	EC50 [2]
Cn1cnnc1-c1cc(F)ccc1-c1cccc(-c2nc3cc(CN[C@H]4CC[C@@H]4O)cc(C(F)(F)F)c3o2)c1 (racemic) [ADF-2, (1R,2R)-2-[({2-[4′-Fluoro-2′-(4-methyl-1,2,4-triazol-3-yl)-[1,1′-biphenyl]-3-yl]-7-(trifluoromethyl)-1,3-benzoxazol-5-yl}methyl)amino]cyclobutan-1-ol]	< 0.2 µM	< 0.2 µM	< 0.2 µM	
Cn1cnnc1-c1cc(F)ccc1-c1cccc(-c2nc3cc(C(NCC4CCC4)C(F)(F)F)cc(F)c3o2)c1 (racemic) [IL-6, rac-N-(Cyclobutylmethyl)-2,2,2-trifluoro-1-(7-fluoro-2-(4′-fluoro-2′-(4-methyl-4H-1,2,4-triazol-3-yl)-[1,1′-biphenyl]-3-yl)benzo[d]oxazol-5-yl)ethan-1-amine]	1 to 10 µM	0.2 to 1 µM	1 to 10 µM	
Cn1cnnc1-c1cc(F)ccc1-c1cccc(-c2nc3cc(CN[C@]4(C)CCC[C@@H]4O)cc(C(F)(F)F)c3o2)c1 (racemic) [IM-8, rac-(1S,2R)-2-(((2-(4′-fluoro-2′-(4-methyl-4H-1,2,4-triazol-3-yl)-[1,1′-biphenyl]-3-yl)-7-(trifluoromethyl)benzo[d]oxazol-5-yl)methyl)amino)-2-methylcyclopentan-1-ol]	< 0.2 µM	< 0.2 µM	< 0.2 µM	
Cn1cnnc1-c1cc(F)ccc1-c1cccc(-c2nc3cc(CN[C@H]4CC[C@@H]4O)cc(C(F)(F)F)c3o2)c1 (single isomer, unassigned) [ADG-1]	< 0.2 µM	< 0.2 µM	< 0.2 µM	
Cn1cnnc1-c1cc(F)ccc1-c1cccc(-c2nc3cc(CN[C@H]4CC[C@@H]4O)cc(C(F)(F)F)c3o2)c1 (single isomer, unassigned) [ADH-1]	< 0.2 µM		< 0.2 µM	< 0.2 µM
Cn1cnnc1-c1cc(F)ccc1-c1cccc(-c2nc3cc([C@H](CO)N4CCC4)cc(C(F)(F)F)c3o2)c1 (single isomer, unassigned) [DO-6]	< 0.2 µM	1 to 10 µM	0.2 to 1 µM	
Cn1cnnc1-c1cc(F)ccc1-c1cccc(-c2nc3cc(CNC[C@H](O)C4CC4)cc(C(F)(F)F)c3o2)c1 (single isomer, unassigned) [DT-2]	< 0.2 µM	< 0.2 µM	< 0.2 µM	
CC(NCC1(O)CCC1)c1cc(F)c2oc(-c3cc(-c4ccc(F)cc4-c4nncn4C)cc(C4CC4)n3)nc2c1 (stereo in doubt) [AFQ-6, 1-({[(1S)-1-(2-{6-Cyclopropyl-4-[4-fluoro-2-(4-methyl-1,2,4-triazol-3-yl)phenyl]pyridin-2-yl}-7-fluoro-1,3-benzoxazol-5-yl)ethyl]amino}methyl)cyclobutan-1-ol]	< 0.2 µM	< 0.2 µM	< 0.2 µM	
CO[C@H]1CCCC1NCc1cc(C(F)(F)F)c2oc(-c3cccc(-c4ccc(F)cc4-c4nncn4C)c3)nc2c1 (stereo in doubt) [CV-2, (1S,2S)—N-((2-(4′-Fluoro-2′-(4-methyl-4H-1,2,4-triazol-3-yl)-[1,1′-biphenyl]-3-yl)-7-(trifluoromethyl)benzo[d]oxazol-5-yl)methyl)-2-methoxycyclopentan-1-amine]	< 0.2 µM	0.2 to 1 µM	< 0.2 µM	
COCCNCc1cc(C(F)(F)F)c2oc(-c3cccc(-c4ccc(F)cc4-c4nncn4C)c3)nc2c1 [AA-2, N-((2-(4′-Fluoro-2′-(4-methyl-4H-1,2,4-triazol-3-yl)-[1,1′-biphenyl]-3-yl)-7-(trifluoromethyl)benzo[d]oxazol-5-yl)methyl)-2-methoxyethan-1-amine]	< 0.2 µM	0.2 to 1 µM	1 to 10 µM	
C[C@H](c1cc(C(F)(F)F)c2oc(-c3cccc(C4(Cc5nncn5C)COC4)c3)nc2c1)N1CCC2(CC2)C1 [AAD-1, 5-[(1R)-1-{5-azaspiro[2.4]heptan-5-yl}ethyl]-2-(3-{3-[(4-methyl-1,2,4-triazol-3-yl)methyl]oxetan-3-yl}phenyl)-7-(trifluoromethyl)-1,3-benzoxazole]	< 0.2 µM	0.2 to 1 µM	1 to 10 µM	
C[C@@H](c1cc(C(F)(F)F)c2oc(-c3cccc(C4(Cc5nncn5C)COC4)c3)nc2c1)N1CCC2(CC2)C1 [AAE-1, 5-[(1S)-1-{5-azaspiro[2.4]heptan-5-yl}ethyl]-2-(3-{3-[(4-methyl-1,2,4-triazol-3-yl)methyl]oxetan-3-yl}phenyl)-7-(trifluoromethyl)-1,3-benzoxazole]	< 0.2 µM	0.2 to 1 µM	< 0.2 µM	
CCNc1cc(-c2ccccc2-c2nncn2C)cc(-c2nc3cc(CN4CCC5(CC5)C4)cc(C(F)(F)F)c3[nH]2)n1 [AAG-4, 6-(6-{5-Azaspiro[2.4]heptan-5-ylmethyl}-4-(trifluoromethyl)-3H-1,3-benzodiazol-2-yl)-N-ethyl-4-[2-(4-methyl-1,2,4-triazol-3-yl)phenyl]pyridin-2-amine]	0.2 to 1 µM	1 to 10 µM	10 to 50 µM	
C[C@H]1CCCN(Cc2cc(C(F)(F)F)c3[nH]c(-c4cccc(-c5ccccc5-c5nncn5C)c4)nc3c2)C1 [AAI-5, 2-[2′-(4-Methyl-1,2,4-triazol-3-yl)-[1,1′-biphenyl]-3-yl]-6-{[(3S)-3-methylpiperidin-1-yl]methyl}-4-(trifluoromethyl)-3H-1,3-benzodiazole]	0.2 to 1 µM	1 to 10 µM	10 to 50 µM	
Cn1cnnc1-c1cc(F)ccc1-c1cccc(-c2nc3cc(CN4CCC5(CC5)C4)cc(C(F)(F)F)c3o2)c1 [AAL-5, 5-((5-Azaspiro[2.4]heptan-5-yl)methyl)-2-(4′-fluoro-2′-(4-methyl-4H-1,2,4-triazol-3-yl)-[1,1′-biphenyl]-3-yl)-7-(trifluoromethyl) benzo[d]oxazole]	< 0.2 µM	1 to 10 µM	1 to 10 µM	

Reference: US20250163038A1, “CBL-B MODULATORS AND USES THEREOF” (Nimbus Clio, Inc., priority 2021, published 2025)
